This is an account of results in patent publication US11716992B2, “5A5B6C tricyclic spirolactone derivative, preparation method therefor and use thereof” (NANKAI UNIVERSITY, priority 2017, dated 2023).

Series [1] relates to Mythimna separate (Walker). Briefly: Insecticidal activity against Mythimna separate (Walker). The class given is in vivo. The following applies: Mythimna, read-out: insecticidal activity, Mythimna separate (Walker).
The subject of the next series is Physalospora piricola. Briefly: Fungicidal activity, fungicide growth rate method, PP. The class given is cell-based. The note with it: 50 μg/mL; read-out: fungicidal activity (growth inhibition rate), PP.
A further series has as its system Sclerotinia sclerotiorum. Put plainly: Fungicidal activity, fungicide growth rate method, SS. The class given is cell-based. The note with it: Sclerotinia sclerotiorum, 50 μg/mL.
Series [2] concerns Phytophthora infestans (Mont.) de Bary. Briefly: microbe, parasite or virus in culture. The note with it: Phytophthora infestans, read-out: fungicidal activity (growth inhibition rate), PI, 50 μg/mL. The class given is cell-based.
For series [3], the system named is Apis mellifera ligustica Spin. The note with it: for Death number after 24 h / Death number after 48 h: per replicate of 10 bees.
Another series concerns wheat Gibberella zeae. Briefly: microbe, parasite or virus in culture. The class given is cell-based. The following applies: Fusarium graminearum, read-out: fungicidal activity (growth inhibition rate), GZ, 50 μg/mL.
Another series has as its system Rhizoctonia cerealis. Briefly: Fungicidal activity, fungicide growth rate method, RC. The class given is cell-based. The following applies: Ceratobasidium cereale, 50 μg/mL; read-out: fungicidal activity (growth inhibition rate), RC.
In a further series the test system is Botrytis cinerea. Briefly: Fungicidal activity, fungicide growth rate method, BC. The class given is cell-based. The note with it: Botrytis cinerea, 50 μg/mL; read-out: fungicidal activity (growth inhibition rate), BC.
For the next series, the system named is Ostrinia furnacalis. Put plainly: Insecticidal activity against Ostrinia furnacalis. The following applies: Ostrinia furnacalis, read-out: insecticidal activity, Ostrinia furnacalis. The class given is in vivo.
Another series concerns Caenorhabditis elegans. Briefly: Insecticidal activity against Caenorhabditis elegans. The class given is in vivo. The note with it: Caenorhabditis elegans, read-out: insecticidal activity, Caenorhabditis elegans.
Series [4] concerns Helicoverpa armigera (Hübner). Put plainly: Insecticidal activity against Helicoverpa armigera (Hübner). The class given is in vivo. The note with it: Helicoverpa armigera, read-out: insecticidal activity, Helicoverpa armigera (Hübner).
The next series relates to Pellicularia sasakii. Briefly: Fungicidal activity, fungicide growth rate method, PS. The class given is cell-based. The following applies: 50 μg/mL; read-out: fungicidal activity (growth inhibition rate), PS.
Another series relates to Cercospora arachidicola. Briefly: Fungicidal activity, fungicide growth rate method, CA. The class given is cell-based. The following applies: Mycosphaerella arachidis, 50 μg/mL; read-out: fungicidal activity (growth inhibition rate), CA.
The next series relates to Alternaria solani. Briefly: Fungicidal activity, fungicide growth rate method, AS. The class given is cell-based. The note with it: Alternaria solani, 50 μg/mL; read-out: fungicidal activity (growth inhibition rate), AS.

“And” between values parts separate entries of the source, which are not always exact repeats. Equal values may be shown once. Read-outs that look alike come from different tables or passages of the source.

As to `C=C(C)C1CC(=O)[C@@]2(O)CC=CC[C@H]12` (stereo partly shown) [Zyj06-166], the pest or weed control at 100 µg/mL in [1] (100 μg/mL) came to 0%; in the series with Ostrinia furnacalis (100 μg/mL), 0%; with Caenorhabditis elegans (100 μg/mL), 5%; in series [4] (100 μg/mL), 0%. Also, the inhibition at 50 µg/mL in the series on Physalospora piricola was 38%; in the series on Sclerotinia sclerotiorum, 17%; in series [2], 25%; in the series with wheat Gibberella zeae, 27%; in the series on Rhizoctonia cerealis it was 0%; in the series on Botrytis cinerea it was 36%. Besides, the inhibition at 50 µg/mL in the series on Pellicularia sasakii was 18%; with Cercospora arachidicola it was over 50%. In addition, the “Death rate after 48 h (%)” value worked out at 0% in [3] (dosage 9.93 μg a.i./bee) and 10.0% in series [3] (dosage 19.7 μg a.i./bee). Also, the “Death number after 24 h” value in [3] (dosage 9.93 μg a.i./bee) and in series [3] (dosage 19.7 μg a.i./bee) was 0 each time. Moreover, the figures for the “Death number after 48 h” value in series [3] (dosage 9.93 μg a.i./bee) and in series [3] (dosage 19.7 μg a.i./bee) were 0 and 1, respectively.
In the case of `C=CC[C@@H]1C[C@]2(O[Si](C)(C)CC=C)CCO[C@@]23CC[C@H](O[Si](C)(C)CC=C)C[C@@H]13` [Zyj07-48], the pest or weed control at 100 µg/mL turned out to be 0% in series [1], 0% with Ostrinia furnacalis, 25% in the series on Caenorhabditis elegans and 0% in [4]. Moreover, the inhibition at 50 µg/mL is 13% with Physalospora piricola; over 50% in the series with Sclerotinia sclerotiorum; 19% in [2]; 7% in the series on wheat Gibberella zeae; 0% in the series with Rhizoctonia cerealis; over 50% in the series with Botrytis cinerea. Also, the inhibition at 50 µg/mL is 0% in the series on Alternaria solani, 14% with Pellicularia sasakii and 35% in the series on Cercospora arachidicola. The results for the “Death rate after 48 h (%)” value in [3] (dosage 9.89 μg a.i./bee) and in series [3] (dosage 19.8 μg a.i./bee) were 5.0% and 0%, respectively. For the same compound, the “Death number after 24 h” value in series [3] (dosage 9.89 μg a.i./bee) and in series [3] (dosage 19.8 μg a.i./bee) was 0 throughout. The “Death number after 48 h” value in series [3] (dosage 9.89 μg a.i./bee) was 0 and 1; in series [3] (dosage 19.8 μg a.i./bee) it was 0.
Regarding `C=CC[C@@H]1C[C@]2(O[Si](C)(C)CC=C)CCO[C@@]23C[C@H](O[Si](C)(C)CC=C)CC[C@H]13` [Zyj07-46], the pest or weed control at 100 µg/mL in [1] (100 μg/mL) was 20%; with Ostrinia furnacalis (100 μg/mL) it was 0%; in the series with Caenorhabditis elegans (100 μg/mL) it was 10%; in series [4] (100 μg/mL), 5%. In addition, the inhibition at 50 µg/mL in the series on Physalospora piricola is 21%; in the series on Sclerotinia sclerotiorum it was over 50%; in series [2], 21%; in the series with wheat Gibberella zeae, 3%; in the series with Rhizoctonia cerealis, 0%; in the series on Botrytis cinerea, over 50%. For the same compound, the inhibition at 50 µg/mL in the series on Alternaria solani came to 8%; in the series on Pellicularia sasakii it was 22%; in the series on Cercospora arachidicola, 14%.
With `C=C(C)[C@@H]1C[C@]2(O)CC(=O)O[C@@]23CC=CC[C@H]13` [Zyj06-175], the inhibition at 50 µg/mL was 8% with Physalospora piricola; 11% with Sclerotinia sclerotiorum; 0% in series [2]; 14% in the series on wheat Gibberella zeae; 61% with Rhizoctonia cerealis; 25% with Botrytis cinerea. The inhibition at 50 µg/mL turned out to be 5% with Pellicularia sasakii and 33% in the series on Cercospora arachidicola. Also, the pest or weed control at 100 µg/mL in the series on Caenorhabditis elegans (100 μg/mL) turned out to be 15%.
Regarding `C=CC[C@@H]1C[C@]2(O)CC(=O)O[C@@]23CC=CC[C@H]13` [Zyj06-186], the pest or weed control at 100 µg/mL in [1] (100 μg/mL) worked out at 0%; in the series on Ostrinia furnacalis (100 μg/mL), 0%; in the series with Caenorhabditis elegans (100 μg/mL) it was 15%; in [4] (100 μg/mL), 0%. Besides, the inhibition at 50 µg/mL is 11% in the series on Physalospora piricola; over 50% with Sclerotinia sclerotiorum; 4% in [2]; 21% in the series on wheat Gibberella zeae; 41% with Rhizoctonia cerealis; 49% in the series with Botrytis cinerea. Further, the inhibition at 50 µg/mL in the series on Alternaria solani worked out at 7%; in the series on Pellicularia sasakii, 6%; in the series on Cercospora arachidicola it was 46%.
Turning to `C=C(C)C1C[C@]2(O)C(C(=O)OCC)C(=O)O[C@@]23CC=CC[C@H]13` (stereo partly shown) [Zyj06-167], the inhibition at 50 µg/mL in the series with Physalospora piricola was found to be 0%; in the series on Sclerotinia sclerotiorum, 9%; in series [2], 0%; in the series on wheat Gibberella zeae it was 46%; with Rhizoctonia cerealis it was 59%; in the series with Botrytis cinerea, 13%. The inhibition at 50 µg/mL with Pellicularia sasakii is 24%; in the series with Cercospora arachidicola, 26%. In the series with Caenorhabditis elegans (100 μg/mL), the pest or weed control at 100 µg/mL turned out to be 25%.
Take `CCOC(=O)C[C@@H]1C[C@]2(O)CC(=O)O[C@@]23CC=CC[C@H]13` [Zyj06-128]: the inhibition at 50 µg/mL in the series with Physalospora piricola is 8%; in the series with Sclerotinia sclerotiorum, 0%; in series [2] it was 7%; in the series with Rhizoctonia cerealis, over 70%; in the series with Botrytis cinerea, 25%; in the series with Pellicularia sasakii, 20%. The inhibition at 50 µg/mL in the series with Cercospora arachidicola was found to be 27%. Besides, the pest or weed control at 100 µg/mL in the series with Caenorhabditis elegans (100 μg/mL) is over 30%.
Take `CO[C@@H]1C[C@]2(O)CC(=O)O[C@@]23CC=CC[C@H]13` [Zyj06-189]: the pest or weed control at 100 µg/mL in series [1] (100 μg/mL) was found to be 0%; in the series with Ostrinia furnacalis (100 μg/mL) it was 0%; with Caenorhabditis elegans (100 μg/mL) it was 8%; in [4] (100 μg/mL), 0%. The inhibition at 50 µg/mL is over 50% with Physalospora piricola; 0% in the series with Sclerotinia sclerotiorum; 23% in [2]; 13% in the series on wheat Gibberella zeae; 29% with Rhizoctonia cerealis; over 50% in the series on Botrytis cinerea. Further, the inhibition at 50 µg/mL turned out to be 0% in the series with Alternaria solani, 23% with Pellicularia sasakii and 24% in the series on Cercospora arachidicola. Besides, the “Death rate after 48 h (%)” value in [3] (dosage 9.77 μg a.i./bee) and in series [3] (dosage 16.4 μg a.i./bee) was 0% throughout. Besides, the “Death number after 24 h” value in [3] (dosage 9.77 μg a.i./bee) and in series [3] (dosage 16.4 μg a.i./bee) was 0 in each case. In addition, the “Death number after 48 h” value in series [3] (dosage 9.77 μg a.i./bee) and in [3] (dosage 16.4 μg a.i./bee) was 0 in each case.
`C=CC[C@@H]1C[C@@]2(O)C[C@@H](CC=C)[C@H]3C[C@@H](O)CC[C@@]32O1` [Zyj07-68]: the pest or weed control at 100 µg/mL in series [1] (100 μg/mL) turned out to be 0%; in the series on Ostrinia furnacalis (100 μg/mL) it was 0%; in the series with Caenorhabditis elegans (100 μg/mL) it was 13%; in series [4] (100 μg/mL) it was 0%. For the same compound, the inhibition at 50 µg/mL is 2% with Physalospora piricola; over 50% with Sclerotinia sclerotiorum; 13% in series [2]; 0% in the series on wheat Gibberella zeae; 21% in the series on Rhizoctonia cerealis; 36% in the series with Botrytis cinerea. Moreover, the inhibition at 50 µg/mL in the series with Alternaria solani was determined as 3%; with Pellicularia sasakii it was 9%; in the series on Cercospora arachidicola, 19%. Besides, the “Death rate after 48 h (%)” value came out at 10.0% in [3] (dosage 9.97 μg a.i./bee) and 0% in series [3] (dosage 16.1 μg a.i./bee). For the same compound, the “Death number after 24 h” value in [3] (dosage 9.97 μg a.i./bee) and in series [3] (dosage 16.1 μg a.i./bee) was 0 in each case. For the same compound, the “Death number after 48 h” value in series [3] (dosage 9.97 μg a.i./bee) worked out at 1; in series [3] (dosage 16.1 μg a.i./bee) it was 0.
